Data reported in US20260374766A1, “METHODS FOR TREATING CANCER” (Antares Therapeutics, Inc., priority 2022, published 2026).
Like-named read-outs stand apart in the source and are kept apart here.

Tests used:
H1299 p53 Y220C = assay: Cell Proliferation Assay (CellTiter-Glo, CTG), H1299 p53 Y220C (NClH1299-inducible p53 Y220C); type: cell-based; settings: Homo sapiens, NCI-H1299, 120 h, CellTiter-Glo, 5 days
Summary of the method: (§1)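 Cells seeded at 250-500 per well and exposed to compound for 5 days. Viability read by CellTiter-Glo luminescence after 10 min at room temperature; IC50 calculated. H1299 lines carry Tet-One inducible p53 mutant constructs introduced by lentiviral transduction.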

[1] = biological target: T1, p53 Y220C mutant protein (amino acid residues 94-293) (Homo sapiens, UniProt P04637, Y220C); assay: Thermal Shift Assay (TSA), dTM; type: binding; settings: for ΔTm at 10 µM: 10 uM compound; for ΔTm at 100 µM: 100 uM compound
T1 construct: p53 Y220C mutant protein (amino acid residues 94-293)
Summary of the method: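 5 μM p53 Y220C (residues 94-293) incubated 3 h at 20 °C with 10 μM or 100 μM compound in 20 mM HEPES pH 7.4, 100 mM NaCl, 0.01% Pluronic F-127, 1% DMSO plus Sypro Orange. Melt from 30 to 50 °C at 0.03 °C/s; TM from Boltzmann two-state fit.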

NUGC3 p53 Y220C = assay: Cell Proliferation Assay (CellTiter-Glo, CTG), NUGC3 p53 Y220C; type: cell-based; settings: Homo sapiens, NUGC-3, 120 h, CellTiter-Glo, 5 days
Summary of the method: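 NClH1299 lines stably transduced with Tet-inducible p53 Y220C or R273H, plus NUGC3, were treated with compound for 5 days at 250-500 cells/well. IC50 derived from CellTiter-Glo luminescent signal after 10 min room-temperature incubation.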

p53 Y220C = p53 Y220C (Homo sapiens, UniProt P04637, Y220C); assay: Luciferase Reporter Assay (Luc), p53 response element, NClH1299 cells with inducible p53 Y220C; type: cell-based; settings: luciferase reporter, NClH1299 inducible p53 Y220C, 6 hour; for AC50: read-out: Luc P53 Y220C AC50
Summary of the method: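 H1299 cells induced with 0.5 ug/mL doxycycline for 24 hours, then exposed to compound for 6 hours. p53 response-element luciferase read by One-Glo luminescence after 5 min shaking at room temperature.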

[2] = biological target: T1, p53 Y220C mutant protein (amino acid residues 94-293); assay: Surface Plasmon Resonance (SPR) assay, Kd_kinetic; type: binding; settings: read-out: SPR P53 Y220C KD kinetic
Summary of the method: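 Binding measured by SPR on a Biacore 8K in running buffer of 50 mM Tris pH 7.5, 100 mM NaCl, 1 mM DTT, 0.01% Brij35, 0.05% Tween-20, 1% DMSO.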

H1299 p53 R273H = assay: Cell Proliferation Assay (CellTiter-Glo, CTG), H1299 p53 R273H (NClH1299-inducible p53 R273H); type: cell-based; settings: Homo sapiens, NCI-H1299, 120 h, CellTiter-Glo, 5 days
Summary of the method: as §1

[3] = thermal shift, read-out: TSA P53 Y220C dTM (10 uM)
[4] = thermal shift, read-out: TSA P53 Y220C dTM (100 uM)
[5] = 10 uM tool compound as positive control
[6] = NClH1299-inducible p53 Y220C cells
[7] = p53 Y220C, read-out: TSA P53 Y220C dTM
[8] = NClH1299-inducible p53 R273H cells

SMILES	IC50 (H1299 p53 Y220C; H1299 p53 Y220C)	ΔTm at 10 µM [1, 3]	ΔTm at 100 µM [1, 4]	Emax (p53 Y220C; [5])	AC50 (p53 Y220C)	Kd ([2]; SPR, kinetic KD, p53 Y220C)	IC50 (H1299 p53 R273H; H1299 p53 R273H)	IC50 (H1299 p53 Y220C; [6])	ΔTm at 10 µM [1, 7]	ΔTm at 100 µM [1, 7]	AC50 (p53 Y220C; AC50)	Emax (p53 Y220C; Emax)	Kd ([2]; SPR, p53 Y220C)	IC50 (H1299 p53 R273H; [8])	Kd [2]	IC50 (NUGC3 p53 Y220C; NUGC3 p53 Y220C)	IC50 (NUGC3 p53 Y220C; NUGC3 cells)
COc1cc(S(=O)(=O)N(C)C)ccc1NCC#Cc1nc2c(N[C@@H]3CCN(C)C[C@@H]3F)cccn2c1CC(F)(F)F [Example 65, 4-{[3-(8-{[(3S,4R)-3-fluoro-1-methylpiperidin-4-yl]amino}-3-(2,2,2-trifluoroethyl)imidazo[1,2-a]pyridin-2-yl)prop-2-yn-1-yl]amino}-3-methoxy-N,N-dimethylbenzenesulfonamide]	0.75 to 1.5 µM		≥ 10 °C	70 to 80%	< 0.75 µM	0.01 to 0.1 µM	5 to 8 µM									0.75 to 1.5 µM	
CNC(=O)c1ccc(OC)c(NCC#Cc2cc3c(N[C@@H]4CCN(C)C[C@@H]4F)nccn3c2SC(F)(F)F)c1 [Example 156, 3-{[3-(1-{[(3S,4R)-3-fluoro-1-methylpiperidin-4-yl]amino}-6-[(trifluoromethyl)sulfanyl]pyrrolo[1,2-a]pyrazin-7-yl)prop-2-yn-1-yl]amino}-4-methoxy-N-methylbenzamide]	< 0.75 µM	≥ 10 °C	≥ 10 °C	> 90%	< 0.75 µM	< 0.01 µM	8 to 10 µM									< 0.75 µM	
CNC(=O)c1ccc(NCC#Cc2nc3c(NCC4(F)CNC4)cccn3c2SC(F)(F)F)c(OC)c1 [Example 197]	> 3 µM	5 to 10 °C	≥ 10 °C	80 to 90%	> 3 µM	0.01 to 0.1 µM	≥ 10 µM									> 3 µM	
CNC(=O)c1ccc(OC[C@H](C)O)c(NCC#Cc2cc3c(N[C@@H]4CCN(C)C[C@@H]4F)nccn3c2SC(F)(F)F)c1 (single isomer, unassigned) [Example 355]								< 0.75 µM	≥ 10 °C		< 0.75 µM	> 90%	< 0.01 µM	≥ 10 µM			< 0.75 µM
CNC(=O)c1cnc(OC)c(NCC#Cc2cc3c(N[C@@H]4CCNC[C@@H]4F)nccn3c2SC(F)(F)F)c1 [Example 292]								< 0.75 µM	≥ 10 °C		< 0.75 µM	> 90%	< 0.01 µM	≥ 10 µM			< 0.75 µM
COc1cc(S(C)(=O)=O)ccc1NCC#Cc1cc2c(N[C@@H]3CN(C)C[C@@H]3F)cccn2c1SC(F)(F)F [Example 339]								< 0.75 µM	≥ 10 °C		< 0.75 µM	80 to 90%	< 0.01 µM	5 to 8 µM			< 0.75 µM
CNC(=O)c1ccc(NCC#Cc2nc3c(N[C@H]4CCC(=O)NC4)cccn3c2SC(F)(F)F)c(OC)c1 [Example 183]	1.5 to 3 µM	5 to 10 °C	5 to 10 °C	80 to 90%	1.5 to 3 µM	0.01 to 0.1 µM	≥ 10 µM									0.75 to 1.5 µM	

Continued, in another order:

IC50 (H1299 p53 Y220C; H1299 p53 Y220C)	ΔTm at 10 µM [1, 3]	ΔTm at 100 µM [1, 4]	Emax (p53 Y220C; [5])	AC50 (p53 Y220C)	Kd ([2]; SPR, kinetic KD, p53 Y220C)	IC50 (H1299 p53 R273H; H1299 p53 R273H)	IC50 (H1299 p53 Y220C; [6])	ΔTm at 10 µM [1, 7]	ΔTm at 100 µM [1, 7]	AC50 (p53 Y220C; AC50)	Emax (p53 Y220C; Emax)	Kd ([2]; SPR, p53 Y220C)	IC50 (H1299 p53 R273H; [8])	Kd [2]	SMILES	IC50 (NUGC3 p53 Y220C; NUGC3 p53 Y220C)	IC50 (NUGC3 p53 Y220C; NUGC3 cells)
< 0.75 µM	≥ 10 °C	≥ 10 °C	80 to 90%	< 0.75 µM	< 0.01 µM	≥ 10 µM									COc1ccc(C(N)=O)nc1NCC#Cc1nc2c(N[C@@H]3CCN(C)C[C@@H]3F)cccn2c1SC(F)(F)F [Example 166]	< 0.75 µM	
< 0.75 µM	≥ 10 °C	≥ 10 °C	> 90%	< 0.75 µM	< 0.01 µM	≥ 10 µM									CNC(=O)c1ccc(C)c(NCC#Cc2nc3c(N[C@@H]4CCN(C)C[C@@H]4F)cccn3c2SC(F)(F)F)c1 [Example 160]	< 0.75 µM	
< 0.75 µM	≥ 10 °C		80 to 90%	< 0.75 µM	< 0.01 µM	≥ 10 µM									CNC(=O)c1ccc(OC)c(NCC#Cc2nc3c(N[C@@H]4CCN(C)C[C@@H]4F)nccn3c2SC(F)(F)F)c1 [Example 212]	< 0.75 µM	
							< 0.75 µM	≥ 10 °C	≥ 10 °C	< 0.75 µM	> 90%	< 0.01 µM	8 to 10 µM		CNC(=O)c1ccc(NCC#Cc2nc3c(N[C@@H]4CCN(C)C[C@@H]4F)cccn3c2SC(F)(F)F)c(C)c1 [Example 239]		< 0.75 µM
< 0.75 µM	≥ 10 °C	≥ 10 °C	70 to 80%	< 0.75 µM		≥ 10 µM								< 0.01 µM	CNC(=O)c1ccc(OC)c(NCC#Cc2nc3c(N[C@@H]4CCN(C)C[C@@H]4F)cccn3c2CC(F)(F)F)n1 [Example 213]	< 0.75 µM	
< 0.75 µM	≥ 10 °C	≥ 10 °C	> 90%	< 0.75 µM	< 0.01 µM	8 to 10 µM									CNC(=O)c1cc(OC)c(NCC#Cc2nc3c(N[C@@H]4CCN(C)C[C@@H]4F)cccn3c2SC(F)(F)F)cc1Cl [Example 121]	< 0.75 µM	
0.75 to 1.5 µM		≥ 10 °C	70 to 80%	0.75 to 1.5 µM	< 0.01 µM	≥ 10 µM									CNC(=O)c1ccc(NCC#Cc2nc3c(N[C@@H]4CCN(C)C[C@@H]4F)cccn3c2CC(F)(F)F)c(OCCOC)c1 [Example 62, 4-{[3-(8-{[(3S,4R)-3-fluoro-1-methylpiperidin-4-yl]amino}-3-(2,2,2-trifluoroethyl)imidazo[1,2-a]pyridin-2-yl)prop-2-yn-1-yl]amino}-3-(2-methoxyethoxy)-N-methylbenzamide]	0.75 to 1.5 µM	
0.75 to 1.5 µM		≥ 10 °C	70 to 80%	1.5 to 3 µM	< 0.01 µM	≥ 10 µM									COc1cc(C(=O)N(C)C)ccc1NCC#Cc1nc2c(N[C@@H]3CCN(C)C[C@@H]3F)cccn2c1CC(F)(F)F [Example 46, 4-{[3-(8-{[(3S,4R)-3-fluoro-1-methylpiperidin-4-yl]amino}-3-(2,2,2-trifluoroethyl)imidazo[1,2-a]pyridin-2-yl)prop-2-yn-1-yl]amino}-3-methoxy-N,N-dimethylbenzamide]	1.5 to 3 µM	
